The target of this experiment is TNFα trimer (Homo sapiens, UniProt P01375). The experiment in a line: TNFα FP Competitive Binding Assay. Particulars: FP binding assay; 20 nM TNFα trimer, 1 nM OregonGreen488 probe; read-out: TNF IC50. In outline:
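Compounds in 12-point 1:3 series, final top 100 μM (2.0% DMSO) or 338 μM (3.4% DMSO), displace 1 nM fluorescent probe from 20 nM TNFα trimer. After 18-24 h incubation plus 1 h rt equilibration, background-subtracted polarization measured and curves fitted with variable slope.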

Chain of TNFα trimer (P01375 77-233 limits assumed): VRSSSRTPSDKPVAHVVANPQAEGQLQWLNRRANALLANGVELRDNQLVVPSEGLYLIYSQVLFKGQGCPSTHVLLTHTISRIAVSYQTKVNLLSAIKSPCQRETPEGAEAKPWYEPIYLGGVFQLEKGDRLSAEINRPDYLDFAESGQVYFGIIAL

Consider `CC(=O)N1CCN(c2ncc(-c3ccc4c(=O)n(C)n(Cc5cc(C)ccc5OC(F)F)c4c3)cn2)CC1` [Example 22.6], for which the IC50 is less than 1000 nM.

As to `Cc1ccc(OC(F)F)c(Cn2c3cc(-c4cnc(N5CCC[C@H]5CO)nc4)ccc3c(=O)n2C)c1` [Example 22.7], the IC50 is 1000 to 10000 nM.

With `Cc1ccc(OC(F)F)c(Cn2c3cc(-c4cnc(N5CCC[C@@H]5CO)nc4)ccc3c(=O)n2C)c1` [Example 22.8], the IC50 fell in the range of 1000 to 10000 nM.

`Cc1ccc(OC(F)F)c(Cn2c3cc(-c4cnc(C(C)(C)CO)nc4)ccc3c(=O)n2C)c1` [Example 22.9]: the IC50 lay within 1000 to 10000 nM.

In the case of `CC(=O)N1CCN(c2ncc(-c3ccc4c(=O)n(C)n(Cc5cc(C)ccc5OC(F)F)c4c3)cn2)C[C@H]1CO` [Example 22.10], the IC50 is less than 1000 nM.

As to `CC(=O)N1CCN(c2ncc(-c3ccc4c(=O)n(C)n(Cc5cc(C)ccc5OC(F)F)c4c3)cn2)C[C@@H]1CO` [Example 22.11], the IC50 is less than 1000 nM.

Take `Cc1ccc(OC(F)F)c(Cn2c3cc(-c4cnc(N5CCN6C(=O)OC[C@H]6C5)nc4)ccc3c(=O)n2C)c1` [Example 22.12]: the IC50 was less than 1000 nM.

As for `Cc1ccc(OC(F)F)c(Cn2c3cc(-c4ccnc(OC5CCOCC5)c4)ccc3c(=O)n2C)c1` [Example 22.13], the IC50 was less than 1000 nM.

On to `CC(=O)N1CCN(c2ncc(-c3ccc4c(=O)n(C)n(Cc5cc(C)ccc5OC(F)F)c4c3)c(C)n2)[C@H](C)C1` [Example 22.14], for which the IC50 is less than 1000 nM.

For `Cc1ccc(OC(F)F)c(Cn2c3cc(-c4cnc(N5CCN(C(=O)CO)C[C@@H]5C)nc4)ccc3c(=O)n2C)c1` [Example 22.15], the IC50 is less than 1000 nM.

`COC(=O)N1CCN(c2ncc(-c3ccc4c(=O)n(C)n(Cc5cc(C)ccc5OC(F)F)c4c3)cn2)C[C@H]1C` [Example 23, (R)-Methyl 4-(5-(1-(2-(difluoromethoxy)-5-methylbenzyl)-2-methyl-3-oxo-2,3-dihydro-1H-indazol-6-yl)pyrimidin-2-yl)-2-methylpiperazine-1-carboxylate]: the IC50 was less than 1000 nM.

On to `C[C@@H]1CN(c2ncc(-c3ccc4c(=O)n(C)n(Cc5ccccc5Cl)c4n3)cn2)CCN1C(=O)CO` [Example 23.1], for which the IC50 was less than 1000 nM.

With `C[C@@H]1CN(c2ncc(-c3cc4c(cc3C#N)c(=O)n(C)n4Cc3ccccc3OC(F)F)cn2)CCN1C(=O)CO` [Example 23.2], the IC50 was in the range of 1000 to 10000 nM.

`C[C@@H]1CN(c2ncc(-c3ccc4c(=O)n(C)n(Cc5ccccc5OC(F)F)c4c3C#N)cn2)CCN1C(=O)CO` [Example 23.3]: the half-maximal inhibitory concentration (IC50) is less than 1000 nM.

As for `Cc1ccc(OC(F)F)c(Cn2c3cc(-c4cnc(N5CCN(S(C)(=O)=O)[C@H](C)C5)nc4)ccc3c(=O)n2C)c1` [Example 24, (R)-1-(2-(Difluoromethoxy)-5-methylbenzyl)-2-methyl-6-(2-(3-methyl-4-(methylsulfonyl)piperazin-1-yl)pyrimidin-5-yl)-1H-indazol-3(2H)-one], the IC50 was less than 1000 nM.

In the case of `C[C@@H]1CN(c2ncc(-c3ccc4c(=O)n(C)n(Cc5cc(CC#N)ccc5OC(F)F)c4c3)cn2)CCN1C(=O)CO` [Example 24.1], the IC50 is less than 1000 nM.

For the molecule `Cc1cccc(C(C)n2c3cc(-c4cnc(N5CCN(C(=O)CO)[C@H](C)C5)nc4)ccc3c(=O)n2C)n1` (stereo partly drawn) [Example 24.2], the IC50 lay within 1000 to 10000 nM.

As to `CCC(c1cccc(C)c1)n1c2cc(-c3cnc(N4CCN(C(=O)CO)[C@H](C)C4)nc3)ccc2c(=O)n1C` (stereo partly drawn) [Example 24.3], the IC50 is less than 1000 nM.

For `C[C@@H]1CN(c2ncc(-c3ccc4c(=O)n(C(F)F)n(Cc5ccccc5OC(F)F)c4c3)cn2)CCN1C(=O)CO` [Example 24.4], the IC50 is less than 1000 nM.

Turning to `C[C@@H]1CN(c2ncc(-c3ccc4c(=O)n(C)n(Cc5ccccc5Cl)c4c3F)cn2)CCN1C(=O)CO` [Example 24.5], the IC50 is less than 1000 nM.

Consider `C[C@@H]1CN(c2ncc(-c3ccc4c(=O)n(C)n(Cc5ccccc5OC(F)F)c4c3F)cn2)CCN1C(=O)CO` [Example 24.6], for which the half-inhibitory concentration (IC50) is less than 1000 nM.

`CC(c1cc(F)ccc1F)n1c2cc(-c3cnc(N4CCN(C(=O)CO)[C@H](C)C4)nc3)ccc2c(=O)n1C` (stereo partly drawn) [Example 24.7]: the IC50 is less than 1000 nM.

`C[C@@H]1CN(c2ncc(-c3ccc4c(=O)n(C)n(Cc5ccccc5Cl)c4c3)cn2)CCN1C(=O)CO` [Example 24.8]: the IC50 was less than 1000 nM.

As for `COc1c(-c2cnc(N3CCN(C(=O)CO)[C@H](C)C3)nc2)ccc2c(=O)n(C)n(Cc3ccccc3Cl)c12` [Example 24.9], the concentration for half-maximal inhibition (IC50) is less than 1000 nM.

On to `Cc1ccnc(C(C)n2c3cc(-c4cnc(N5CCN(C(=O)CO)[C@H](C)C5)nc4)ccc3c(=O)n2C)c1` (stereo partly drawn) [Example 24.10], for which the IC50 fell in the range of 1000 to 10000 nM.

On to `C[C@@H]1CN(c2ncc(-c3nc4c(cc3F)c(=O)n(C)n4Cc3ccccc3OC(F)F)cn2)CCN1C(=O)CO` [Example 24.11], for which the half-inhibitory concentration (IC50) is less than 1000 nM.

`Cc1c(-c2cnc(N3CCN(C(=O)CO)[C@H](C)C3)nc2)ccc2c(=O)n(C)n(Cc3ccccc3OC(F)F)c12` [Example 24.12]: the IC50 was less than 1000 nM.

For `Cc1c(-c2cnc(N3CCN(C(=O)CO)[C@H](C)C3)nc2)ccc2c(=O)n(C)n(Cc3ccccc3Cl)c12` [Example 24.13], the IC50 was less than 1000 nM.

`Cc1ccc(OC(F)F)c(Cn2c3cc(-c4cnc(N5CCN(C(=O)CC#N)[C@@H](C)C5)nc4)ccc3c(=O)n2C)c1` [Example 25.1]: the IC50 was less than 1000 nM.

`Cc1ccc(OC(F)F)c(Cn2c3c(F)c(-c4cnc(C(C)(C)O)nc4)ccc3c(=O)n2C)c1` [Example 26.1]: the IC50 lay in the range of 1000 to 10000 nM.

With `Cc1ccc(OC(F)F)c(Cn2c3cc(-c4cnc(C(C)(C)O)nc4)ccc3c(=O)n2C(F)F)c1` [Example 26.2], the IC50 is 1000 to 10000 nM.

Take `COC(=O)NCc1ccc(OC(F)F)c(Cn2c3cc(-c4cnc(C(C)(C)O)nc4)ccc3c(=O)n2C)c1` [Example 26.3]: the IC50 is 1000 to 10000 nM.

In the case of `Cn1c(=O)c2cc(F)c(-c3cnc(C(C)(C)O)nc3)cc2n1Cc1cc(Cn2cncn2)ccc1OC(F)F` [Example 26.4], the IC50 was less than 1000 nM.

In the case of `Cn1c(=O)c2cc(F)c(-c3cnc(C(C)(C)O)nc3)cc2n1Cc1cc(Cn2cnnc2)ccc1OC(F)F` [Example 26.5], the IC50 fell in the range of 1000 to 10000 nM.

As for `CC(=O)N1CC(Cc2ccc(OC(F)F)c(Cn3c4cc(-c5cnc(C(C)(C)O)nc5)c(F)cc4c(=O)n3C)c2)C1` [Example 26.6], the IC50 is 1000 to 10000 nM.

As for `Cc1ccc(OC(F)F)c(Cn2c3nc(-c4cnc(C(C)(C)O)nc4)c(F)cc3c(=O)n2C)c1` [Example 26.7], the half-maximal inhibitory concentration (IC50) lay within 1000 to 10000 nM.

As to `Cn1c(=O)c2ccc(-c3cnc(C(C)(C)O)nc3)cc2n1Cc1cc(CC#N)ccc1OC(F)F` [Example 26.8], the IC50 lay in the range of 1000 to 10000 nM.

Regarding `CC(=O)NCc1ccc(OC(F)F)c(Cn2c3cc(-c4cnc(N5CCN(C(C)=O)[C@H](C)C5)nc4)ccc3c(=O)n2C)c1` [Example 27.1], the IC50 fell in the range of 1000 to 10000 nM.

In the case of `COC(=O)NCc1ccc(OC(F)F)c(Cn2c3cc(-c4cnc(N5CCN(C(C)=O)[C@H](C)C5)nc4)ccc3c(=O)n2C)c1` [Example 27.2], the IC50 was less than 1000 nM.

As for `CC(=O)N1CCN(c2ncc(-c3ccc4c(=O)n(C)n(Cc5cc(CC#N)ccc5OC(F)F)c4c3)cn2)C[C@H]1C` [Example 27.3], the IC50 is less than 1000 nM.

`CC(=O)N1CCN(c2ncc(-c3ccc4c(=O)n(C)n(Cc5cc(CC(C)C#N)ccc5OC(F)F)c4c3)cn2)C[C@H]1C` (stereo partly drawn) [Example 27.4]: the IC50 lay within 1000 to 10000 nM.

Consider `CC(=O)N1CCN(c2ncc(-c3ccc4c(=O)n(C)n(Cc5c[nH]cc5C(F)(F)F)c4c3)cn2)C[C@H]1C` [Example 27.5], for which the IC50 was less than 1000 nM.

For `CC(=O)N1CCN(c2ncc(-c3ccc4c(=O)n(Cc5ccncc5)n(Cc5ccccc5OC(F)F)c4c3)cn2)C[C@H]1C` [Example 27.6], the IC50 was 1000 to 10000 nM.

In the case of `CC(=O)N1CCN(c2ncc(-c3ccc4c(=O)n(Cc5ccncc5)n(Cc5ccccc5Cl)c4c3)cn2)C[C@H]1C` [Example 27.7], the IC50 is 1000 to 10000 nM.

For the molecule `CC(c1c(F)cccc1F)n1c2cc(-c3cnc(N4CCN(C(=O)CO)[C@H](C)C4)nc3)ccc2c(=O)n1C` (stereo partly drawn) [Example 28.1, 1-(1-(2,6-Difluorophenyl)ethyl)-6-(2-((R)-4-(2-hydroxyacetyl)-3-methylpiperazin-1-yl)pyrimidin-5-yl)-2-methyl-1H-indazol-3(2H)-one], the IC50 was less than 1000 nM.

Take `CC(c1ccccc1)n1c2cc(-c3cnc(N4CCN(C(=O)CO)[C@H](C)C4)nc3)ccc2c(=O)n1C` (stereo partly drawn) [Example 28.2]: the IC50 was less than 1000 nM.

For `CC(c1ccccc1F)n1c2cc(-c3cnc(N4CCN(C(=O)CO)[C@H](C)C4)nc3)ccc2c(=O)n1C` (stereo partly drawn) [Example 28.3], the IC50 was less than 1000 nM.

As to `CC(c1ccccc1Cl)n1c2cc(-c3cnc(N4CCN(C(=O)CO)[C@H](C)C4)nc3)ccc2c(=O)n1C` (stereo partly drawn) [Example 28.4], the IC50 is 1000 to 10000 nM.

`Cn1c(=O)c2ccc(-c3cnc(N4CCN(C=O)CC4)nc3)cc2n1Cc1cc(CO)ccc1OC(F)F` [Example 29, 4-(5-(1-(2-(Difluoromethoxy)-5-(hydroxymethyl)benzyl)-2-methyl-3-oxo-2,3-dihydro-1H-indazol-6-yl)pyrimidin-2-yl)piperazine-1-carbaldehyde]: the IC50 was less than 1000 nM.

Regarding `Cc1cnc(C(F)(F)F)c(Cn2c3cc(-c4cnc(N5CCN6C(=O)NC[C@H]6C5)nc4)ccc3c(=O)n2C)c1` [Example 29.1], the IC50 was 1000 to 10000 nM.

Take `Cn1c(=O)c2ccc(-c3cnc(N4CCN5C(=O)NC[C@H]5C4)nc3)cc2n1Cc1cccnc1C(F)(F)F` [Example 29.2]: the half-inhibitory concentration (IC50) is 1000 to 10000 nM.

Turning to `Cc1ccc(C(F)(F)F)c(Cn2c3cc(-c4cnc(N5CCN6C(=O)NC[C@H]6C5)nc4)ccc3c(=O)n2C)c1` [Example 29.3], the IC50 was less than 1000 nM.

Turning to `Cn1c(=O)c2ccc(-c3cnc(N4CCN5C(=O)NC[C@H]5C4)nc3)cc2n1Cc1c(Cl)ccc2c1COC2` [Example 29.4], the IC50 is less than 1000 nM.

Turning to `Cn1c(=O)c2ccc(-c3cnc(N4CCN5C(=O)NC[C@H]5C4)nc3)cc2n1Cc1cc(Cl)ccc1C(F)(F)F` [Example 29.5], the IC50 is less than 1000 nM.

As usually defined, the IC50 is the concentration at which inhibition is half-maximal.

Values taken from US10160748B2 (AbbVie Inc., priority 2015, dated 2018).
